Measurements reported in US7125847B1, “Mechanically activated channel blocker” (priority 2000, dated 2006).
pKd: −log10 of the molar value. “And” between values parts separate entries of the source, which are not always exact repeats. Equal entries are not always repeated.

Tested on: stretch-activated channels (SACs)
Test: Outside-out patch clamp of stretch-activated channels in adult rat astrocytes
Format: cell-based
Experimental: This embodiment describes the effect of the peptide GsMTx-4 variant (SEQ ID NO:1) on SACs. To illustrate this, adult rat astrocytes which are known to have SACs, were used. Adult rat astrocytes were cultured according to standard methods. Briefly, activated adult astrocytes isolated from gelatin-sponge implants from adult Sprague-Dawley rat brains obtained according to the method of Langan et al. (1995, Glia, 14:174–184) were used at passage numbers 2–4. Astrocytes were maintained in DMEM, 10% fetal bovine serum and 1% Penicillin/Streptomycin and were used in experiments between 2 and 5 days after passage. Cells between passage 4 and 35 expressed SACs with the same properties Both stellate process bearing cells and flat polygonal (fibroblast-like) cells were used.
The cultured astrocytes were used for single channel and whole cell recorndings. For single channel patch clamp, patch voltage was controlled by an Axopatch 200B (Axon Instruments, Calif.) and currents were recorded directly onto computer disk via a Labmaster DMA Ver. B (Scientific Instruments, Calif.) board controlled by pClamp6-Clampex acquisition software (Axon Instruments, California). Currents were sampled at 10 KHz and low-pass filtered at 2 KHz through the 4 pole Bessel filter on the Axopatch 200B. Experimental voltage protocols were controlled by pClamp6-Clampex. All potentials are defined with respect to the extracellular surface.
Electrodes were pulled on a Model PC-84 pipette puller (Brown-Flaming Instruments, Calif.), painted with Sylgard 184 (Dow Corning Corp. Midland Mich.) and fire polished. Electrodes were filled with KCl saline (KCl 140 mM, EGTA 5 mM, MgSO4 2 mM, Hepes 10 mM, pH 7.3) and had resistances ranging from 3–8 MWBath saline consisted of NaCl 140 mM, KCl 5 mM, MgSO4 1 mM, CaCl2 1 mM, glucose 6 mM and Hepes 10 mM, pH 7.3.
Pressure and suction were applied to the pipette by a pressure clamp. Pressure values represent pressure in the pipette, i.e., the intracellular side of the membrane in outside-out patches. Suction applied to a cell-attached patch has the same sign as pressure applied to an outside-out patch. The rise time of pressure changes at the tip were determined by monitoring the rate of current change when pressure steps were applied to an electrode containing 150 mM KCl solution and placed in a water bath. The t10-90 was ˜5 ms as determined by exponential fits to the current decay. Perfusion of toxin samples was performed by a pressurized bath perfusion system BPS-8 (ALA scientific instruments, NY) with 8 separate channels.
Off-line data analysis was performed with pClamp6 analysis software and Origin 5.0. Maximal unitary channel currents were determined via Guassian fits to the peaks of all points amplitude histograms generated from records containing 1–3 channels. […] Some of these records were analyzed by determining all of the step-like changes in current during the pressure application and selecting the average maximal current level as the unitary current. The data analyzed by this method was in good agreement with the unitary current levels determined by analysis of all points amplitude histograms from single channel patches.
The outside out patches from adult astrocytes as described above were used for testing the HPLC fractions obtained in Example 1. The HPLC fractions were lyophilized, redissolved at a 1:1000 dilution and perfused onto outside out patches. […] The fraction containing the single peak in FIG. 1D was then tested for activity against SACs. […] The patch was held at −50 mV, and the pressure pulse is shown above the records.
The entire experiment is comprised of 60 pressure steps: steps 1–20 occur before GsMTx-4 application; steps 21–38 while GsMTx-4 is being perfused; steps 39–60 occur during washout. Each 500 ms pressure step was separated by 1.5 seconds at 0 pressure.
The association rate of the toxin was determined by applying GsMTx-4 to an outside-out patch while the channels were activated by stretch (FIG. 5). […]

GCLEFWWKCNPNDDKCCRPKLKCSKLFKLCNFSFGK [GsMTx-4]
time constant of current decay during GsMTx-4 application (association) (5 μM toxin, outside-out patches held at −50 mV, single exponential fit): 594 ± 10 ms
average SAC current when GsMTx-4 was applied (7 patches, −50 mV, 2.04±0.14 pA prior to application): 0.17±0.02 pA
block of SACs (HPLC fractions at 1:1000 dilution relative to whole venom, outside-out patches): the block was complete
association constant ka (assuming 1:1 binding, from time constant at 5 μM): 340000 M⁻¹ s⁻¹ and 330000 M⁻¹ s⁻¹
ratio of blocked to unblocked current I/I0 (data of FIG. 6): 0.083
dissociation constant kd (from recovery kinetics on washout): 0.21 s⁻¹
average SAC current after GsMTx-4 washout (last 8 pressure steps, 10 seconds after washout): 2.28±0.17 pA
calculated equilibrium constant KD=kd/ka (ratio of rate constants): 631 ± 240 nM
pKd (single binding site model, read-out: binding constant Kd from I/I0): 6.38
